The values that follow are results of earlier work, collected in US20200113803A1, “ANHYDROUS COMPOSITION OF SMALL-MOLECULE POLYSACCHARIDES AND APPLICATION THEREOF” (SAGE PHARMACEUTICALS, INC., priority 2016, published 2020).

For the series the following is noted: background statement.

Consider Hyaluronic acid [HA], for which the “ability of HA to hold water” value was “up to 1000 ml water for 1 g of HA”.
